The values below come from ChEMBL document CHEMBL1134530, “Synthesis and biological activity of 7-oxo substituted analogues of 5-deaza-5,6,7,8-tetrahydrofolic acid (5-DATHF) and 5,10-dideaza-5,6,7,8-tetrahydrofolic acid (DDATHF)” (J Med Chem, 2001).

As usually defined, the IC50 is the concentration that inhibits the measured activity by half.

In brackets after ≈: the same amount, converted by molar mass. Some results are limits rather than exact numbers.

The test system of this assay is CCRF-CEM. In words: Compound was tested for cytotoxic activity in CCRF-CEM Human Leukemia cells by in vitro cytotoxicity assay. In kind it is functional, cell-based.
`Nc1nc(O)c2c(n1)NCC(CCc1ccc(C(=O)NC(CCC(=O)O)C(=O)O)cc1)C2` (stereo not given) showed an IC50 of 7 ng/mL (≈ 0.0158 µM).

The compound `CN(CC1Cc2c(O)nc(N)nc2NC1=O)c1ccc(C(=O)NC(CCC(=O)O)C(=O)O)cc1` (stereo not given) showed an IC50 greater than 20000 ng/mL. Next, `Nc1nc(O)c2c(n1)NC(=O)C(CCc1ccc(C(=O)NC(CCC(=O)O)C(=O)O)cc1)C2` (stereo not given): greater than 20000 ng/mL; `Nc1nc(O)c2c(n1)NC(=O)C(CNc1ccc(C(=O)NC(CCC(=O)O)C(=O)O)cc1)C2` (stereo not given): greater than 20000 ng/mL. Under `CN(Cc1cnc2nc(N)nc(N)c2n1)c1ccc(C(=O)N[C@@H](CCC(=O)O)C(=O)O)cc1` [METHOTREXATE] stands 4 ng/mL (≈ 0.0088 µM).
